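Five compound concentrations were applied to cells in 96-well plates for 48 hours; endpoints were derived by simple linear interpolation of the resulting dose-response curve. TGI marks complete inhibition of growth.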
Columns and labels:
Assay in all cases: NCI tumour cell line growth inhibition, 48 h
[1] = system: 786-0 renal
[2] = system: A549 NSCLC
[3] = system: ACHN renal
[4] = system: BT-549 breast
[5] = system: CAKI-1 renal
[6] = system: CCRF-CEM leukemia
[7] = system: COLO 205 colon
[8] = system: DU-145 prostate
[9] = system: EKVX NSCLC
[10] = system: HCC-2998 colon
[11] = system: HCT-116 colon
[12] = system: HCT-15 colon
[13] = system: HL-60(TB) leukemia
[14] = system: HOP-62 NSCLC
[15] = system: HOP-92 NSCLC
[16] = system: HS 578T breast
[17] = system: HT29 colon
[18] = system: IGROV1 ovarian
[19] = system: K-562 leukemia
[20] = system: KM12 colon
[21] = system: LOX IMVI melanoma
[22] = system: M14 melanoma
[23] = system: MALME-3M melanoma
[24] = system: MCF7 breast
[25] = system: MDA-MB-231 breast
[26] = system: MDA-MB-435
[27] = system: MDA-N
[28] = system: MOLT-4 leukemia
[29] = system: NCI-H226 lung
[30] = system: NCI-H23 lung
[31] = system: NCI-H522 lung
[32] = system: NCI/ADR-RES ovarian
[33] = system: OVCAR-3 ovarian
[34] = system: OVCAR-4 ovarian
[35] = system: OVCAR-5 ovarian
[36] = system: OVCAR-8 ovarian
[37] = system: PC-3 prostate
[38] = system: RPMI-8226 leukemia
[39] = system: RXF 393 renal
[40] = system: SF-268 CNS
[41] = system: SF-295 CNS
[42] = system: SF-539 CNS
[43] = system: SK-MEL-2 melanoma
[44] = system: SK-MEL-28 melanoma
[45] = system: SK-MEL-5 melanoma
[46] = system: SK-OV-3 ovarian
[47] = system: SN12C renal
[48] = system: SNB-19 CNS
[49] = system: SNB-75 CNS
[50] = system: SR leukemia
[51] = system: SW-620 colon
[52] = system: T-47D breast
[53] = system: TK-10 renal
[54] = system: U251 CNS
[55] = system: UACC-257 melanoma
[56] = system: UACC-62 melanoma
[57] = system: UO-31 renal
[58] = system: NCI-H460 lung

SMILES: Cc1cc2ncn(C3CCCO3)c2cc1C (centres undefined)
- TGI [1]: > 100 µM
- TGI [2]: > 100 µM
- TGI [3]: > 100 µM
- TGI [4]: > 100 µM
- TGI [5]: > 100 µM
- TGI [6]: > 100 µM
- TGI [7]: > 100 µM
- TGI [8]: > 100 µM
- TGI [9]: > 100 µM
- TGI [10]: > 100 µM
- TGI [11]: > 100 µM
- TGI [12]: > 100 µM
- TGI [13]: > 100 µM
- TGI [14]: > 100 µM
- TGI [15]: > 100 µM
- TGI [16]: > 100 µM
- TGI [17]: > 100 µM
- TGI [18]: > 100 µM
- TGI [19]: > 100 µM
- TGI [20]: > 100 µM
- TGI [21]: > 100 µM
- TGI [22]: > 100 µM
- TGI [23]: > 100 µM
- TGI [24]: > 100 µM
- TGI [25]: > 100 µM
- TGI [26]: > 100 µM
- TGI [27]: > 100 µM
- TGI [28]: > 100 µM
- TGI [29]: > 100 µM
- TGI [30]: > 100 µM
- TGI [31]: > 100 µM
- TGI [32]: > 100 µM
- TGI [33]: > 100 µM
- TGI [34]: > 100 µM
- TGI [35]: > 100 µM
- TGI [36]: > 100 µM
- TGI [37]: > 100 µM
- TGI [38]: > 100 µM
- TGI [39]: > 100 µM
- TGI [40]: > 100 µM
- TGI [41]: > 100 µM
- TGI [42]: > 100 µM
- TGI [43]: > 100 µM
- TGI [44]: > 100 µM
- TGI [45]: > 100 µM
- TGI [46]: > 100 µM
- TGI [47]: > 100 µM
- TGI [48]: > 100 µM
- TGI [49]: > 100 µM
- TGI [50]: > 100 µM
- TGI [51]: > 100 µM
- TGI [52]: > 100 µM
- TGI [53]: > 100 µM
- TGI [54]: > 100 µM
- TGI [55]: > 100 µM
- TGI [56]: > 100 µM
- TGI [57]: > 100 µM

SMILES: COc1cc(C2SC(N)=Nc3c2c(C)nn3C(=O)c2ccc(Cl)cc2)cc(OC)c1OC (centres undefined)
- TGI [1]: > 10 µM
- TGI [2]: > 10 µM
- TGI [3]: > 10 µM
- TGI [4]: > 10 µM
- TGI [5]: > 10 µM
- TGI [6]: > 10 µM
- TGI [7]: > 10 µM
- TGI [8]: > 10 µM
- TGI [9]: > 10 µM
- TGI [10]: > 10 µM
- TGI [11]: > 10 µM
- TGI [12]: > 10 µM
- TGI [13]: > 10 µM
- TGI [14]: > 10 µM
- TGI [15]: > 10 µM
- TGI [16]: > 10 µM
- TGI [17]: > 10 µM
- TGI [18]: > 10 µM
- TGI [19]: > 10 µM
- TGI [20]: > 10 µM
- TGI [21]: > 10 µM
- TGI [22]: > 10 µM
- TGI [23]: > 10 µM
- TGI [24]: > 10 µM
- TGI [25]: > 10 µM
- TGI [26]: > 10 µM
- TGI [27]: > 10 µM
- TGI [28]: > 10 µM
- TGI [29]: > 10 µM
- TGI [30]: > 10 µM
- TGI [58]: > 10 µM
- TGI [31]: > 10 µM
- TGI [32]: > 10 µM
- TGI [33]: > 10 µM
- TGI [34]: > 10 µM
- TGI [35]: > 10 µM
- TGI [36]: > 10 µM
- TGI [37]: > 10 µM
- TGI [38]: > 10 µM
- TGI [39]: > 10 µM
- TGI [40]: > 10 µM
- TGI [41]: > 10 µM
- TGI [42]: > 10 µM
- TGI [43]: > 10 µM
- TGI [44]: > 10 µM
- TGI [45]: > 10 µM
- TGI [46]: > 10 µM
- TGI [47]: > 10 µM
- TGI [48]: > 10 µM
- TGI [49]: > 10 µM
- TGI [50]: > 10 µM
- TGI [51]: > 10 µM
- TGI [52]: > 10 µM
- TGI [53]: > 10 µM
- TGI [54]: > 10 µM
- TGI [55]: > 10 µM
- TGI [56]: > 10 µM
